Data published in article PMC8876525 (Viruses, 2022).
Marks after values point to notes of the source that are not given here.

Columns and labels:
[1] = CCK-8 cytotoxicity assay in HepAD38 cells; type: cell-based, Human; conditions: human, 6 days
HBV [2] = assay: Secreted HBV DNA in HepAD38 culture supernatant (RT-qPCR); type: cell-based; conditions: for EC50: Hepatitis B virus, read-out: EC50 (secreted HBV DNA); for Residual HBV DNA level (secreted) relative to DMSO control: 20 μM compound
HBV capsid = HBV capsid (Hepatitis B virus genotype D subtype ayw, UniProt P03146); assay: Intracellular HBV capsid formation; type: cell-based; conditions: 6 days; for Effect on intracellular HBV capsid formation at single concentration: HepAD38 or HepG2-HBV1.3 cells, compounds 10 μM, ETV 25 nM, BAY 41-4109 2 μM
HepAD38 cells = assay: CCK-8 cytotoxicity assay in HepAD38 cells; type: cell-based, Human
wild-type HBV = assay: Drug susceptibility assay, HepG2 transfected with HBV1.1-WT; type: cell-based; conditions: Hepatitis B virus, 144 h; wild-type HBV in HepG2, secreted HBV DNA, 6 days; read-out: viral replication EC50
[3] = test system: ETV-resistant mutant (rtL180M/S202G/M204V) HBV; assay: Drug susceptibility assay, HepG2 transfected with ETV-resistant mutant; type: cell-based; conditions: Hepatitis B virus, HepG2, 144 h, read-out: viral replication EC50
HBV encapsidated pgRNA = assay: Encapsidated pgRNA and total HBV RNAs (Northern blot); type: cell-based; conditions: HepAD38 cells, BAY 41-4109 2 μM; for Effect on HBV encapsidated pgRNA: C-18, C-39, C-19 5 μM, ETV 25 nM; for Effect on intracellular total HBV RNAs: C-18, C-39 5 μM
HBsAg = assay: Secreted HBsAg ELISA; type: cell-based, HBV; conditions: 6 days, ETV 25 nM, BAY 41-4109 2 μM
HBeAg = assay: Secreted HBeAg ELISA; type: cell-based, HBV; conditions: 6 days
HBV [4] = assay: HepG2-NTCP de novo HBV infection model (viral markers, cccDNA Taq-Man qPCR); type: cell-based; conditions: HepG2-NTCP cells, 5 μM
HBV [5] = assay: Secreted HBV DNA in HepG2-HBV1.3 culture supernatant (RT-qPCR); type: cell-based; conditions: HepG2-HBV1.3 cells; for EC50: Hepatitis B virus, 144 h, 6 days
HBV 3.5 kb RNA = assay: Intracellular HBV 3.5 kb RNA (RT-qPCR); type: cell-based; conditions: 6 days
HBc = HBc (Hepatitis B virus genotype D subtype ayw, UniProt P03146); assay: Immunofluorescence of HBV core protein in HepAD38 cells; type: cell-based; conditions: 3 days, BAY 41-4109 2 μM; for HBc localisation / aggregation: C-18 and C-39 5 μM
HBV core DNA = assay: Intracellular HBV core DNA (qPCR) and replicative intermediates (Southern blot); type: cell-based; conditions: 6 days; for Effect on intracellular HBV core DNA: qPCR
[6] = CCK-8 cytotoxicity assay in HepG2-HBV1.3 (HepG2) cells; type: cell-based; conditions: human
Cp149 protein = Cp149 protein (Hepatitis B virus genotype D subtype ayw, UniProt P03146); assay: Cp149 capsid assembly in vitro, transmission electron microscopy; type: biochemical, HBV; conditions: Cp149 5 μM dimer, 300 mM NaCl, 150 mM HEPES pH 7.5; BAY 41-4109 5 μM 3 days, C-39 20 μM 3 and 7 days
Cp149 protein, sequence (P03146 1-149): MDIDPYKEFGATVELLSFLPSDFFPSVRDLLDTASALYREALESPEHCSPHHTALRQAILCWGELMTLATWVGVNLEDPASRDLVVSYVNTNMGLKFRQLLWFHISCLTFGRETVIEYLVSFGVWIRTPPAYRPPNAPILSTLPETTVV

HBc, sequence (P03146 whole entry): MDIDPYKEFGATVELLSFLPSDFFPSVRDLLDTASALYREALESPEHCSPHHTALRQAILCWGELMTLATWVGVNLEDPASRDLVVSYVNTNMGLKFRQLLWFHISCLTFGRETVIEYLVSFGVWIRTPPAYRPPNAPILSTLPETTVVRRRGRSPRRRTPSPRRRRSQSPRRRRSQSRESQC
HBV capsid, sequence (P03146 whole entry): as above

COc1cccc(-c2noc([C@@H]3CCCN3C(=O)Nc3ccc(F)c(Cl)c3)n2)c1 [Compound C-9]
CC50 at 6 days [1]: 26.6 ± 2 µM | SI (CC50/EC50) (HBV [2]; HepAD38 cells): 23.4 | EC50 (HBV [2]; 144 h, HepAD38 cells, 6 days): 1.14 ± 0.23 µM | Effect on intracellular HBV capsid formation at single concentration (HBV capsid): did not affect the capsid formation

Nc1nc(N2C(=O)C3CC=CCC3C2=O)nn1-c1ccccc1 (stereo not shown) [Compound C-5]
Residual HBV DNA level (secreted) relative to DMSO control (HBV [2]; HepAD38 cells): 51%

Cc1cc2c(cc1S(=O)(=O)N1CCCC(C(=O)Nc3ccc(F)c(Cl)c3)C1)OCC(=O)N2 (stereo not shown) [Compound C-29]
CC50 at 6 days [1]: 18.2 ± 2.2 µM | Cytotoxicity in words (HepAD38 cells): medium cytotoxicity | SI (CC50/EC50) (HBV [2]; HepAD38 cells): 14.1 ^a | EC50 (HBV [2]; 144 h, HepAD38 cells, 6 days): 1.29 ± 0.01 µM

C=C1[C@H](CO)[C@@H](O)C[C@@H]1n1cnc2c(=O)[nH]c(N)nc21 [ETV, Entecavir, reference compound]
EC50 (wild-type HBV): 0.0032 µM | EC50 [3]: 0.0061 µM | Effect on HBV encapsidated pgRNA (HBV encapsidated pgRNA): upregulated | EC50 (HBV [2]; HePAD38, 144 h): 0.003 ± 0.001 µM | Effect on intracellular HBV capsid formation at single concentration (HBV capsid): much less or no inhibition effects | Effect on secreted HBsAg (HBsAg; HepAD38 cells): no impact on HBsAg production | Effect on secreted HBsAg (HBsAg; HepG2-HBV1.3 cells): no impact on HBsAg production

Cc1cc2c(cc1S(=O)(=O)N1CCCC(C(=O)Nc3ccc(F)c(Cl)c3)C1)OC(C)C(=O)N2 (stereo not shown) [Compound C-18]
Effect on secreted HBeAg (HBeAg; HepAD38 cells): reduced the HBeAg level | Effect on secreted HBeAg (HBeAg; HepG2-HBV1.3 cells): downregulated | Effect on cccDNA formation, treatment together with viral inoculum (day 0) (HBV [4]): prevented the formation of cccDNA during the early postentry step | Effect on pre-established cccDNA, treatment 4 days after infection (day 4) (HBV [4]): minor effect | Effect on intracellular total HBV RNAs (HBV encapsidated pgRNA): slight decrease | Effect on HBV encapsidated pgRNA (HBV encapsidated pgRNA): markedly downregulated | SI (CC50/EC50) (HBV [5]): 147.1 | EC50 (HBV [5]): 0.14 µM | CC50 at 6 days [1]: 14.8 ± 0.7 µM | SI (CC50/EC50) (HBV [2]; HepAD38 cells): 131.2 | EC50 (HBV [2]; 144 h, HepAD38 cells, 6 days): 0.11 ± 0.03 µM | Effect on intracellular HBV capsid formation at single concentration (HBV capsid): strongly inhibited | Effect on intracellular HBV capsid formation, concentration series (HBV capsid; HepG2-HBV1.3 cells): downregulated | Effect on secreted HBsAg (HBsAg; HepAD38 cells): no impact on HBsAg | Effect on intracellular HBV 3.5 kb RNA (HBV 3.5 kb RNA; HepAD38 cells): dramatic decrease | Effect on intracellular HBV 3.5 kb RNA (HBV 3.5 kb RNA; HepG2-HBV1.3 cells): downregulated | HBc localisation / aggregation (HBc): induced punctate HBc aggregation within the nucleus | Effect on HBV replicative intermediates (HBV core DNA; HepAD38 cells, Southern blot): notably downregulated | Effect on intracellular HBV core DNA (HBV core DNA; HepAD38 cells): dramatic decrease | Effect on intracellular HBV core DNA (HBV core DNA; HepG2-HBV1.3 cells): downregulated | CC50 at 6 days [6]: 20.6 µM

Cc1cc(O)c(C2=Nc3c(C(N)=O)cnn3C(c3cccc(Cl)c3)C2)c(=O)o1 (stereo not shown) [Compound C-6]
Residual HBV DNA level (secreted) relative to DMSO control (HBV [2]; HepAD38 cells): 36%

CCOC(=O)c1c(S(=O)(=O)N2CCCC(C(=O)Nc3ccc(F)c(Cl)c3)C2)c(C)n(C)c1C (stereo not shown) [Compound C-39]
EC50 (wild-type HBV): 0.078 µM | Effect on secreted HBeAg (HBeAg; HepAD38 cells): markedly reduced | Effect on secreted HBeAg (HBeAg; HepG2-HBV1.3 cells): markedly reduced | EC50 [3]: 0.084 µM | Effect on cccDNA formation, treatment together with viral inoculum (day 0) (HBV [4]): prevented the formation of cccDNA during the early postentry step | Effect on pre-established cccDNA, treatment 4 days after infection (day 4) (HBV [4]): minor effect | Effect on intracellular total HBV RNAs (HBV encapsidated pgRNA): slight decrease | Effect on HBV encapsidated pgRNA (HBV encapsidated pgRNA): markedly downregulated | EC50 (HBV [5]): 0.075 ± 0.016 µM | CC50 at 6 days [1]: > 100 µM | Cytotoxicity in words (HepAD38 cells): no obvious toxicity | HBV DNA secretion and intracellular HBV DNA in combination with ETV vs ETV alone (HBV [2]; HepAD38 cells, 5 nM ETV together with C-39 0-10 μM): further inhibition | EC50 (HBV [2]; 144 h, HepAD38 cells, 6 days): 0.056 ± 0.013 µM | Effect on intracellular HBV capsid formation at single concentration (HBV capsid): dramatically inhibited capsid formation | Morphology of assembled Cp149 particles (TEM) (Cp149 protein): effectively accelerated the formation of capsid-like particles with time | Effect on secreted HBsAg (HBsAg; HepAD38 cells): no impact on HBsAg production | Effect on secreted HBsAg (HBsAg; HepG2-HBV1.3 cells): no impact on HBsAg production | Effect on intracellular HBV 3.5 kb RNA (HBV 3.5 kb RNA; HepAD38 cells): markedly reduced | Effect on intracellular HBV 3.5 kb RNA (HBV 3.5 kb RNA; HepG2-HBV1.3 cells): markedly reduced | HBc localisation / aggregation (HBc): induced punctate HBc aggregation within the nucleus | HBc level by immunofluorescence (HBc; C-39 5 μM): significantly decreased the HBc level | Effect on intracellular HBV core DNA (HBV core DNA; HepAD38 cells): markedly reduced | Effect on intracellular HBV core DNA (HBV core DNA; HepG2-HBV1.3 cells): markedly reduced | CC50 at 6 days [6]: > 100 µM

CC(=O)N1c2ccc(S(=O)(=O)N3CCCC(C(=O)Nc4ccc(F)c(Cl)c4)C3)cc2CC1C (stereo not shown) [Compound C-31]
CC50 at 6 days [1]: 25 ± 3.3 µM | SI (CC50/EC50) (HBV [2]; HepAD38 cells): 96.0 ^a | EC50 (HBV [2]; 144 h, HepAD38 cells, 6 days): 0.26 ± 0.03 µM

CC1Oc2ccc(S(=O)(=O)N3CCCC(C(=O)Nc4ccc(F)c(Cl)c4)C3)cc2NC1=O (stereo not shown) [Compound C-35]
CC50 at 6 days [1]: 9.8 ± 1 µM | Cytotoxicity in words (HepAD38 cells): medium cytotoxicity | SI (CC50/EC50) (HBV [2]; HepAD38 cells): 23.9 ^a | EC50 (HBV [2]; 144 h, HepAD38 cells, 6 days): 0.41 ± 0.01 µM

Cc1onc(C(=O)Nc2ccc(F)c(F)c2)c1COc1cccc(C(F)(F)F)c1 [Compound C-1]
Residual HBV DNA level (secreted) relative to DMSO control (HBV [2]; HepAD38 cells): 62%
